Experimental data as given in patent US20250205158A1, “BIODEGRADABLE LIPIDS AND FORMULATIONS FOR DELIVERY OF MRNA” (Massachusetts Institute of Technology, priority 2023, published 2025).

Key:
mice = assay: IFN-γ ELISpot and supernatant cytokines of peptide-stimulated splenocytes after HA mRNA vaccination; type: in vivo, BALB/cJ and C57B1/6J mice
Description: Further experiments to evaluate the dose-sparing potential of AMG1541 were performed for influenza vaccination.^34,35 The immunogenicity of AMG1541 was compared to the clinical benchmark SM-102 by formulating each into LNPs containing hemagglutinin (HA) (A/Tasmania/503/2020 H3N2) mRNA. BALB/cJ mice were vaccinated with […] of these mRNA LNPs and the quality of humoral and cellular immunity following vaccination was evaluated. Enhancing each component of immunity contributes to improving vaccine protection—humoral immunity provides protection against initial infection while cellular immunity improves the clearance of breakthrough infections. […] Male and female mice vaccinated with AMG1541 had 15.8- and 6.8-fold higher endpoint titers, respectively (FIG. 13C). […] Serum cytokines were examined 6 hours after the boost dose to determine whether the enhanced immunogenicity of AMG1541 also led to increased systemic inflammation (FIGS. 20A-20C). […]
IFN-γ ELISpot. […] Cells were then pelleted, resuspended in PBS+1% BSA, and counted using a countess 3 automated cell counter (ThermoFisher). […]
Luminex. […] The supernatants from the stimulated splenocytes used for the ELISpot assay were analyzed using Eve Technologies' Mouse High Sensitivity 18-Plex Discovery Assay® (MilliporeSigma, Burlington, Massachusetts, USA) according to the manufacturer's protocol. […]

TNS assay of LNP pKa = type: physicochemical
Description: Structural features of AMG lipids that facilitate mRNA delivery. The factors contributing to lipid potency were evaluated. The ionization properties of AMG1541 LNPs were investigated using a previously established 6-(p-toluidino)-2-napthalenesulfonic acid (TNS) assay.^22 The pKa of AMG LNPs showing higher in vivo mRNA transfection than SM-102 ranged between pH 6.4-6.7. […] In addition to endosomal buffering, it is hypothesized that the protonated ionizable lipids within the acidic endosome bind with anionic phospholipids within the endosomal membrane, destabilizing the membrane's bilayer and promoting endosomal pore formation.^17,52 The membrane fusion properties of the ionizable lipids was evaluated via ^31P NMR. When bilayer forming DPPS vesicles were mixed with equimolar AMG lipid under acidic conditions, a bilayer to hexagonal phase transition was observed, indicating their membrane-destabilizing nature (FIG. 15D).

CCCCCC/C=C\CCCC(=O)OCC(O)CN1CCN(CC(O)COC(=O)CCC/C=C\CCCCCC)CCN(CC(O)COC(=O)CCC/C=C\CCCCCC)CCN(CC(O)COC(=O)CCC/C=C\CCCCCC)CCN(CC(O)COC(=O)CCC/C=C\CCCCCC)CCN(CC(O)COC(=O)CCC/C=C\CCCCCC)CC1 (stereo not drawn) [AMG1541]
cytokines in media from splenocytes stimulated with MHC-binding peptides (mice; BALB/cJ mice, HA mRNA, dose=1 μg): significant upregulation of IL-4, and IL-5 in both male and female mice and IL-10 in female mice
fold more Spot Forming Units (SFU) relative to SM-102 (mice; IFN-γ ELISpot, MHC-I stimulated splenocytes, female C57B1/6J mice): 6.6 fold
LNP pKa (TNS assay of LNP pKa): ~6.5
